The record followed here is patent publication US10111956B2, “Corticosteroid compositions” (TOLMAR, Inc., priority 2013, dated 2018).

Some results are limits rather than exact numbers.

Data set [1] can be described thus: Solubility of corticosteroids in neat solvents, measured gravimetrically. The data set is classed as physicochemical. As to conditions: for Solubility in PG Monocaprylate: neat PG monocaprylate; for Solubility in PG Monocaprylate / Solubility in PG Monolaurate / Solubility in Isopropyl Myristate: room temperature, examined at about 24 hours; for Solubility in PG Monolaurate: neat PG monolaurate; for Solubility in Isopropyl Myristate: neat isopropyl myristate; for times more soluble in PG monocaprylate than in isopropyl myristate / times more soluble in PG monolaurate than in isopropyl myristate: ratio of Table 1 solubilities. The method, then: (§1) The solubilities of various corticosteroids in propylene glycol (PG) monocaprylate, PG monolaurate, or isopropyl myristate were measured gravimetrically. Corticosteroid, PG monocaprylate, PG monolaurate, and/or isopropyl myristate were placed in glass vials and weighed on an analytical balance to four decimals places. Test solutions were stirred and shaken at room temperature for up to 30 minutes. Test solutions were examined at about 24 hours for clarity or non-dissolved material.

Data set [2] in a line: Solubility of corticosteroid in mixtures of solvent components (procedure of Example 1). The data set is classed as physicochemical. The method, then: as §1

Take `CCC(=O)OCC(=O)[C@@]1(OC(=O)CC)[C@@H](C)C[C@H]2[C@@H]3CCC4=CC(=O)C=C[C@]4(C)[C@@]3(F)[C@@H](O)C[C@@]21C` [Betamethasone Dipropionate]: in data set [1], the “Solubility in PG Monocaprylate” value was determined as 4.0 % w/w, the “Solubility in PG Monolaurate” value came to 2.30 % w/w, the “Solubility in Isopropyl Myristate” value amounted to 0.15 % w/w and the “times more soluble in PG monocaprylate than in isopropyl myristate” value is recorded as 27 times. The “times more soluble in PG monolaurate than in isopropyl myristate” value in data set [1] is on record as 15.3 times.

With `CCCC(=O)O[C@]1(C(=O)CO)CC[C@H]2[C@@H]3CCC4=CC(=O)CC[C@]4(C)[C@H]3[C@@H](O)C[C@@]21C` [Hydrocortisone Butyrate], in data set [1], the “Solubility in PG Monocaprylate” value is given as 2.0 % w/w, the “Solubility in PG Monolaurate” value was determined as 1.35 % w/w, the “Solubility in Isopropyl Myristate” value came out at 0.10 % w/w and the “times more soluble in PG monocaprylate than in isopropyl myristate” value is 20 times. In data set [1], the “times more soluble in PG monolaurate than in isopropyl myristate” value worked out at 13.5 times.

As to `CCC(=O)O[C@]1(C(=O)CCl)[C@@H](C)C[C@H]2[C@@H]3CCC4=CC(=O)C=C[C@]4(C)[C@@]3(F)[C@@H](O)C[C@@]21C` [Clobetasol Propionate], in data set [1], the “Solubility in PG Monocaprylate” value is reported as 4.0 % w/w, the “Solubility in PG Monolaurate” value amounted to 1.80 % w/w, the “Solubility in Isopropyl Myristate” value was determined as 0.25 % w/w and the “times more soluble in PG monocaprylate than in isopropyl myristate” value stood at 16 times. For the same compound, the “times more soluble in PG monolaurate than in isopropyl myristate” value in data set [1] is recorded as 7.2 times.

For `CC1(C)O[C@@H]2C[C@H]3[C@@H]4CCC5=CC(=O)C=C[C@]5(C)[C@@]4(F)[C@@H](O)C[C@]3(C)[C@]2(C(=O)CO)O1` [Triamcinolone Acetonide], the “increase of solubility on addition of ethoxydiglycol to PG alone” value in data set [2] (12:12:0 ethoxydiglycol:PG:PG monocaprylate versus PG alone, Example 5) worked out at 1.7 fold. Moreover, the Solubility turned out to be 1.53 % w/w in data set [2] (Ethoxydiglycol:PG:PG Monocaprylate 12:0:12, Table 7); 2.00 % w/w in data set [2] (Ethoxydiglycol:PG:PG Monocaprylate 12:3:9, Table 7); 2.30 % w/w in data set [2] (Ethoxydiglycol:PG:PG Monocaprylate 12:6:6, Table 7); 2.45 % w/w in data set [2] (Ethoxydiglycol:PG:PG Monocaprylate 12:9:3, Table 7); 2.45 % w/w in data set [2] (Ethoxydiglycol:PG:PG Monocaprylate 12:12:0, Table 7); 0.60 % w/w in data set [2] (PG:PG Monocaprylate 0:100 (PG monocaprylate alone), Table 6). Moreover, the Solubility was 1.25 % w/w in data set [2] (PG:PG Monocaprylate 25:75, Table 6); 1.60 % w/w in data set [2] (PG:PG Monocaprylate 50:50, Table 6); 1.50 % w/w in data set [2] (PG:PG Monocaprylate 75:25, Table 6); 1.15 % w/w in data set [2] (PG:PG Monocaprylate 90:10, Table 6); 0.90 % w/w in data set [2] (PG:PG Monocaprylate 100:0 (PG alone), Table 6). For the same compound, in data set [2] (FIG. 4), the “solubility in ethoxydiglycol:PG:PG monocaprylate mixture compared with PG:PG monocaprylate mixture” value is “more soluble”. Besides, the “solubility in PG:PG monocaprylate mixtures compared with expected solubility (dashed line)” value in data set [2] (FIG. 4, each tested mixture containing both PG and PG monocaprylate) is reported as “more soluble in the mixture than expected”. Further, the “Solubility in PG Monocaprylate” value in data set [1] was found to be 0.65 % w/w. In addition, the “Solubility in PG Monolaurate” value in data set [1] amounted to 0.30 % w/w; in data set [1] (listed as triamcinolone acetonide), 0.3 % w/w. For the same compound, the “Solubility in Isopropyl Myristate” value in data set [1] is under 0.04 % w/w. Besides, the “times more soluble in PG monocaprylate than in isopropyl myristate” value in data set [1] is listed as “at least 16 times”. Besides, the “times more soluble in PG monolaurate than in isopropyl myristate” value in data set [1] is recorded as “at least 7.5 times”.

Regarding `CC1(C)O[C@@H]2C[C@H]3[C@@H]4CCC5=CC(=O)C=C[C@]5(C)[C@H]4[C@@H](O)C[C@]3(C)[C@]2(C(=O)CO)O1` [Desonide], in data set [1], the “Solubility in PG Monocaprylate” value is on record as 1.15 % w/w and the “Solubility in PG Monolaurate” value is recorded as 0.40 % w/w.

For the compound `C[C@@H]1C[C@H]2[C@@H]3CCC4=CC(=O)C=C[C@]4(C)[C@@]3(Cl)[C@@H](O)C[C@]2(C)[C@@]1(OC(=O)c1ccco1)C(=O)CCl` [Mometasone Fuorate], in data set [1], the “Solubility in PG Monocaprylate” value was found to be 0.7 % w/w.

On to `CCC(=O)O[C@]1(C(=O)SCF)[C@H](C)C[C@H]2[C@@H]3C[C@H](F)C4=CC(=O)C=C[C@]4(C)[C@@]3(F)[C@@H](O)C[C@@]21C` [Fluticasone Propionate], for which, in data set [1], the “Solubility in PG Monocaprylate” value came to 0.3 % w/w, the “Solubility in Isopropyl Myristate” value is listed as under 0.03 % w/w and the “times more soluble in PG monocaprylate than in isopropyl myristate” value came to 10 times.
